One may read the IC50 as the concentration that gives 50% inhibition. What is called Km is the substrate concentration at which the rate is half of its maximum. The kcat is the maximal rate divided by the concentration of active sites.

Where two headings read alike, the source gives them in different places.

Consider five molecules from patent US20090221441A1, “THREE-DIMENSIONAL CELLULAR ARRAY CHIP AND PLATFORM FOR TOXICOLOGY ASSAYS” (Rensselaer Polytechnic Institute, priority 2005, published 2009).

For data set [1], the system named is MCF7 human breast cancer cells. The data set is described as follows: cells. As to the method:
(§1) The cytotoxicity of drugs (or drug metabolites) was determined by staining the slide containing the cells with a Live/Dead test kit (Molecular Probes) that produces a green fluorescent response from living cells. At the end of the 3-day culture period post stamping, the three-dimensional cell chip (DataChip) was rinsed three times in PBS for 5 min each. One mL of a dye solution containing 0.5 μM calcein AM was applied to each three-dimensional cell chip using a glass slide with 1 mm thick perimeter gasket acting as a barrier to prevent loss of the dye solution.

Data set [2] has as its system Hep3B human hepatoma cells. The data set is described as follows: cells. The following applies: read-out: Calculated IC50, Alginate DataChip (Hep3B). The method, then:
as §1
(§2) Following incubation for 50 minutes at room temperature, excess dye in the collagen-gel drops was removed by incubating the slides in a petri dish containing 16 mL of PBS for 30 min on a gyratory shaker at 60 rpm. The three-dimensional cell chip was dried thoroughly with nitrogen. The three-dimensional cell chip was scanned with the GenePix® Professional 4200A scanner equipped with blue laser and standard blue filter to determine the green fluorescent intensity and was quantified from the scanning image using GenePix Pro 6.0 (Molecular Devices Co.).
(§3) Percent live cells=(FReaction/FMax)×100
(§4) where FReaction is the green fluorescence intensity of the reaction spot and FMax is the green fluorescence intensity of untreated fully viable cells.
(§5) The alginate-containing three-dimensional cell chip (DataChip) was prepared as follows. A poly-L-lysine (PLL)-barium mixture was prepared by mixing equal volume of sterile PLL (0.01 w/v % from Sigma) and barium chloride solution in distilled water (0.1 M from Sigma).
(§6) A suspension of cells in low-viscosity alginate (from Sigma) was prepared by mixing a Hep3B cell suspension in 5% FBS-supplemented DMEM with alginate solution in distilled water so that the final concentration of cells and alginate are 6×10^6 cells/mL and 1% (w/v), respectively.
(§7) Following spotting and drying of 10 nL PLL-barium mixture on the PS-MA-treated slide, 20-nL of the cell suspension (MCF7 or HepB3; cell density of 6×10^6 cells/mL or 120 cells per spot) in alginate was spotted atop each PLL-barium spot.

Data set [3] relates to MCF7 cells. The data set is described as follows: cells. The following applies: Homo sapiens, MCF7, read-out: Calculated IC50, Alginate DataChip (MCF7). As to the method: as §1, §2, §3, §4, §5, §6, §7
A short description of data set [4]: Cytotoxicity of compounds and their P450-generated metabolites, Hep3B DataChip stamped with MetaChip. The conditions noted are these: human. As to the method:
as §1, §2, §3, §4
(§8) For efficient stamping, MTMOS-coated glass slides were prepared to contain a sol-gel barrier on the periphery of the slides.
(§9) To this end […] of methyltrimethoxysilane (MTMOS) sol was prepared by mixing 2 mL of MTMOS with 1 mL of HCl (10 mM) and sonicated for 10 min. The sol was spotted on the periphery of the MTMOS-coated slide and then the slide was baked in an oven for 30 min at 120° C.
(§10) The MetaChip was stored at −80° C. for 1 day prior to use. Cytotoxicity studies were performed by spotting 20 nL of test compound in distilled water (0-2 mM) onto the MetaChip spots and partially dried.
(§11) This was followed by stamping of the three-dimensional cell chip (DataChip) containing either MCF7 or Hep3B cells onto the MetaChip.
(§12) To this end, a MetaChip consisting of 20×54 alginate spots was prepared; each spot containing a single human P450 isoform (CYP1A2, CYP2D6, or CYP3A4), a mixture of the three isoforms, or no P450 as a test compound only control. Addition of test compounds was carried out by overlay spotting of solutions of these compounds onto the MetaChip, which was then stamped on top of the DataChip.
(§13) Using three DataChips in combination with three MetaChips, IC50 values for 27 compounds and their P450-generated metabolites against human Hep3B cells were determined. […] The three P450 isoforms were used along with an equimolar mixture of the three isoforms and a test compound only control without P450. The test compounds were added to the MetaChip, which was then stamped onto the DataChip and incubated for 6 h. This was followed by removing the DataChip, rinsing with growth medium, incubating in media for 3 days, and then stained for cell viability.

The next data set relates to human Hep3B cells. The data set is described as follows: in vitro. The method, then: as §1, §2, §3, §4, §8, §9, §10, §11, §12, §13
Data set [5] has as its system MCF7 cells. The data set is described as follows: cells. The following applies: Homo sapiens.
The subject of data set [6] is MCF7 cells. The data set is described as follows: cells. The conditions noted are these: Homo sapiens. The source holds these as a separate data set.
Data set [7] has as its system MCF7 cells. The following applies: read-out: IC50, 2D literature values; 2D cultures in 96-well plates, Refs 1-5; cited from earlier work.
The nature of data set [8]: P450 activity determination with blue fluorogenic substrates in 384-well plate. Format: biochemical, human. The method, then: To assess the intrinsic reactivity of P450s in alginate matrices, reactions were performed in wells of a 384-well plate. P450-containing alginate sol was prepared by dispensing 24 μL of P450 baculosomes (1 nmol P450/mL), 36 μL of distilled water, and 60 μL of alginate (2%) in distilled water. Five microliters of this solution were spotted onto 5 μL of the dried PLL-barium spot in a 384-well. Followed by storage of the P450-alginate gel drops at −80° C. for 1 day, 25 μL of blue fluorogenic substrates (BOMCC for CYP3A4 and EOMCC for CYP1A2 and CYP2D6) containing 250 μM NADP^+ and its regeneration system (8 mM glucose-6-phosphate and 1 U/mL glucose-6-phosphate dehydrogenase) in 50 mM potassium phosphate buffer (pH 8) were dispensed onto the thawed P450-alginate gel drop.
As a control, soluble P450 without alginate was also used. The blue fluorescent 7-hydroxycoumarin released by P450-catalyzed oxidation of BOMCC or EOMCC was monitored as a function of time using a BioAssay Reader HTS 7000 Plus (Perkin Elmer, Norwalk, Conn.) at an excitation wavelength of 430 nm and emission wavelength of 497 nm.

Setting [9] is: MCF7, read-out: Calculated IC50, Collagen DataChip (MCF7).
The mark [10] stands for this setting: MCF7, read-out: IC50 evaluated on the DataChip.
Setting [11] is: IC50, CYP1A2, Hep3B DataChip, MetaChip spots with CYP1A2.
Setting [12] is: IC50, CYP2D6, Hep3B DataChip, MetaChip spots with CYP2D6.
The mark [13] stands for this setting: IC50, CYP3A4, Hep3B DataChip, MetaChip spots with CYP3A4.
Where [14] appears, read: IC50, Mixture, Hep3B DataChip, equimolar mixture of CYP1A2, CYP2D6, CYP3A4.
[15] abbreviates: IC50, No P450, Hep3B DataChip, test compound only control without P450.
Where [16] appears, read: MCF7, read-out: Calculated IC50, 2D 96-well plate.
Setting [17] is: MCF7, read-out: IC50 from 2D control in the 96-well plate.
Setting [18] is: MCF7, read-out: Calculated IC50, 3D 96-well plate.
The mark [19] stands for this setting: MCF7, read-out: IC50 from 3D control.
Setting [20] is: Soluble enzyme (control, in solution).

With `O=c1[nH]cc(F)c(=O)[nH]1` [5-Fluorouracil, 5-fluorouracil], the IC50 was 82.4 ± 10.3 µM in data set [1] (setting [9]); 51.5 ± 3.3 µM in data set [1] (setting [10]); 66.1 ± 8.8 µM in data set [2]; 84.6 ± 18.7 µM with MCF7 cells [3]; 68.9 ± 13.5 µM in the data set on MCF7 cells [5] (setting [16]); 41.7 ± 4.6 µM in the data set with MCF7 cells [5] (setting [17]). In addition, the IC50 with MCF7 cells [6] (setting [18]) is 49 ± 3 µM; in the data set on MCF7 cells [6] (setting [19]), 34.7 ± 1.2 µM; in the data set on MCF7 cells [7], 4.1 to 30 µM. The IC50 at 6 h worked out at 218 ± 44.3 µM in data set [4] (setting [11]); 132 ± 20.7 µM in [4] (setting [12]); 349 ± 72.3 µM in [4] (setting [13]); 436 ± 77 µM in data set [4] (setting [14]); 196 ± 27.2 µM in [4] (setting [15]). Also, the “Activation or deactivation of the toxic response by CYP3A4” value with human Hep3B cells is listed as “deactivated”.

Take “CYP3A4: human P450 isoform (baculosomes), soluble or encapsulated in alginate; assayed with BOMCC”: in data set [8] (In Alginate), the Km came out at 35.4 ± 8.98 µM and the kcat was found to be 0.0775 ± 0.0145 s⁻¹. Besides, in [8] (setting [20]), the Km amounted to 33.7 ± 2.94 µM and the kcat came out at 0.125 ± 0.008 s⁻¹.

As for `COc1cccc2c1C(=O)c1c(O)c3c(c(O)c1C2=O)C[C@@](O)(C(=O)CO)C[C@@H]3O[C@H]1C[C@H](N)[C@H](O)[C@H](C)O1` [Doxorubicin, doxorubicin], the IC50 in data set [1] (setting [9]) was 0.43 ± 0.09 µM; in data set [1] (setting [10]), 0.869 ± 0.057 µM; in data set [2], 0.29 ± 0.09 µM; in the data set with MCF7 cells [3] it was 0.19 ± 0.08 µM; in the data set with MCF7 cells [5] (setting [16]), 0.06 ± 0.01 µM; in the data set with MCF7 cells [5] (setting [17]), 0.0647 ± 0.0044 µM. Moreover, the IC50 with MCF7 cells [6] (setting [18]) is 0.23 ± 0.02 µM; in the data set with MCF7 cells [6] (setting [19]), 69.2 ± 3 µM; in the data set with MCF7 cells [7], 0.01 to 55 µM. Also, the IC50 at 6 h in data set [4] (setting [11]) is 1.01 ± 0.22 µM; in [4] (setting [12]), 4.94 ± 1.36 µM; in [4] (setting [13]), 19.3 ± 5.45 µM; in data set [4] (setting [14]) it was 9.71 ± 2.22 µM; in [4] (setting [15]) it was 0.69 ± 0.01 µM; in data set [4] (IC50 values, Hep3B DataChip), less than 1 µM. Besides, in the data set with human Hep3B cells, the “Activation or deactivation of the toxic response by CYP2D6” value is “activated”.

B1: CYP1A2: human P450 isoform (baculosomes), soluble or encapsulated in alginate; assayed with EOMCC (protein, UniProt P05177 2-516, looked up)
Cytochrome P450 1A2: ALSQSVPFSATELLLASAIFCLVFWVLKGLRPRVPKGLKSPPEPWGWPLLGHVLTLGKNPHLALSRMSQRYGDVLQIRIGSTPVLVLSRLDTIRQALVRQGDDFKGRPDLYTSTLITDGQSLTFSTDSGPVWAARRRLAQNALNTFSIASDPASSSSCYLEEHVSKEAKALISRLQELMAGPGHFDPYNQVVVSVANVIGAMCFGQHFPESSDEMLSLVKNTHEFVETASSGNPLDFFPILRYLPNPALQRFKAFNQRFLWFLQKTVQEHYQDFDKNSVRDITGALFKHSKKGPRASGNLIPQEKIVNLVNDIFGAGFDTVTTAISWSLMYLVTKPEIQRKIQKELDTVIGRERRPRLSDRPQLPYLEAFILETFRHSSFLPFTIPHSTTRDTTLNGFYIPKKCCVFVNQWQVNHDPELWEDPSEFRPERFLTADGTAINKPLSEKMMLFGMGKRRCIGEVLAKWEIFLFLAILLQQLEFSVPPGVKVDLTPIYGLTMKHARCEHVQARLRFSIN
As for B1, in data set [8] (In Alginate), the Km was found to be 3.61 ± 0.43 µM and the kcat is 0.0085 ± 0.00517 s⁻¹. Further, in data set [8] (setting [20]), the Km worked out at 5.78 ± 0.8 µM and the kcat is 0.0225 ± 0.0013 s⁻¹.

B2: CYP2D6: human P450 isoform (baculosomes), soluble or encapsulated in alginate; assayed with EOMCC (protein, UniProt P10635 1-497, looked up)
Cytochrome P450 2D6: MGLEALVPLAVIVAIFLLLVDLMHRRQRWAARYPPGPLPLPGLGNLLHVDFQNTPYCFDQLRRRFGDVFSLQLAWTPVVVLNGLAAVREALVTHGEDTADRPPVPITQILGFGPRSQGVFLARYGPAWREQRRFSVSTLRNLGLGKKSLEQWVTEEAACLCAAFANHSGRPFRPNGLLDKAVSNVIASLTCGRRFEYDDPRFLRLLDLAQEGLKEESGFLREVLNAVPVLLHIPALAGKVLRFQKAFLTQLDELLTEHRMTWDPAQPPRDLTEAFLAEMEKAKGNPESSFNDENLRIVVADLFSAGMVTTSTTLAWGLLLMILHPDVQRRVQQEIDDVIGQVRRPEMGDQAHMPYTTAVIHEVQRFGDIVPLGVTHMTSRDIEVQGFRIPKGTTLITNLSSVLKDEAVWEKPFRFHPEHFLDAQGHFVKPEAFLPFSAGRRACLGEPLARMELFLFFTSLLQHFSFSVPTGQPRPSHHGVFAFLVSPSPYELCAVPR
B2: in data set [8] (In Alginate), the Km came out at 6.37 ± 1.25 µM and the kcat is 0.0012 ± 0.00017 s⁻¹. Moreover, in [8] (setting [20]), the Km came to 12.5 ± 4.64 µM and the kcat came to 0.002 ± 0.0005 s⁻¹.
